Like-named read-outs stand apart in the source and are kept apart here.

The text below walks through data of patent US9096591B2, “Tetracyclic compounds” (Medivation Technologies, Inc., priority 2007, dated 2015).

Assay [1] concerns the target T1, human recombinant adrenergic α2B receptor (Homo sapiens, UniProt P18089).
T1 construct: expressed in transfected cells; host or cells: CHO-K1 cells
T1 sequence (P18089 1-450): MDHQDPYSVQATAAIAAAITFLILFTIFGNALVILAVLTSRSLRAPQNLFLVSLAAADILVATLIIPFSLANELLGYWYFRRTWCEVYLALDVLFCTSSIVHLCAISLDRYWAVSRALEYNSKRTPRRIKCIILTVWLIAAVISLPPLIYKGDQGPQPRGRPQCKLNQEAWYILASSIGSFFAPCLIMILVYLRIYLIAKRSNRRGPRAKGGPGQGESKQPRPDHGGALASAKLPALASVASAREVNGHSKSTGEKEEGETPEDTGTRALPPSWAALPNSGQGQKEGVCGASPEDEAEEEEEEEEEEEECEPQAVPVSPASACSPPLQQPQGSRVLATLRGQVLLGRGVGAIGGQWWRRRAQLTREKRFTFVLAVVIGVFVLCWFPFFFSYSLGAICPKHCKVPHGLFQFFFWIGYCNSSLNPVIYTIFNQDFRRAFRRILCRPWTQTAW
As to the kind of experiment: Adrenergic α2B radioligand binding ([3H]Rauwolscine). On the set-up: Inhibition of ligand binding, Adren. alpha2B: concentration or dose not given beside the values. To be noted: percent inhibition of specific binding. The method, boiled down: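 Membranes from CHO-K1 cells expressing the receptor, in 50 mM Tris-HCl pH 7.4 with 12.5 mM MgCl2, 1 mM EDTA, 0.2% BSA, incubated with compounds and 2.5 nM [3H]Rauwolscine for 60 minutes at 25 °C.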

The target of assay [2] is T2, human recombinant histamine H1 receptor (Homo sapiens, UniProt P35367).
T2 construct: expressed in transfected cells; host or cells: CHO cells
T2 sequence (P35367 whole entry): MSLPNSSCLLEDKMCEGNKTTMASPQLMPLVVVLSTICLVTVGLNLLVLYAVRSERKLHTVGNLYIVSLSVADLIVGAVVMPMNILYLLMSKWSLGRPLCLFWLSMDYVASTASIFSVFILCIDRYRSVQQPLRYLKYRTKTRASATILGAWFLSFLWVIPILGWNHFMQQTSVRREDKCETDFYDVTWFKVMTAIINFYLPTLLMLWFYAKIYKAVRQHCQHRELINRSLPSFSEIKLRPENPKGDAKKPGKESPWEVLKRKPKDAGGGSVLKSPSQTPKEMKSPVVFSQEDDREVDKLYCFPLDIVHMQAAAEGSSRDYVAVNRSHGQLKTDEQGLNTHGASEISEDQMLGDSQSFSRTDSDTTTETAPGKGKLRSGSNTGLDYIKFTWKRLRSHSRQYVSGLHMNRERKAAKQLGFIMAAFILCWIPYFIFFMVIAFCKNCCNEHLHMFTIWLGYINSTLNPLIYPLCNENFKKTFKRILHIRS
Nature of the assay: Histamine H1 radioligand binding ([3H]Pyrilamine). To be noted: read-out: Inhibition of ligand binding, Hist. H1. The method, boiled down:
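Receptor expressed in CHO cells, assayed in 50 mM Tris-HCl pH 7.4 with 2 mM MgCl2, 100 mM NaCl, 250 mM sucrose. Compounds tested at 1 μM in 1% DMSO; non-specific binding set with 1 μM pyrilamine. Filter-bound radioactivity counted; values are percent inhibition of specific binding.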

The test system of the next assay is rat brain mitochondria. Nature of the assay: Ca2+-induced swelling of mitochondria (MPT pore opening). It counts as biochemical, Wistar rats. To be noted: for A540 increase in mitochondrial suspension after addition of 100 μM of compound: 100 μM compound. Summed up:
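Percoll-purified forebrain mitochondria from male Wistar rats, 0.2 mg protein in mannitol/sucrose/HEPES pH 7.4 with 0.8 μM rotenone, 5 mM succinate, 1 mM KH2PO4 at 30 °C. Swelling triggered by Ca2+ and read as A540 decrease; rate as ΔA540/min/mg from steepest tangent.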

Where [3] appears, read: read-out: IC50, Ca2+-induced (25-50 μM) swelling of brain mitochondria, rat brain mitochondria, Ca2+ 25-50 μM.

As for `CN1CCc2c(c3cc(Cl)ccc3n2CCc2ccc(C(F)(F)F)nc2)C1` [Compound 250], in assay [1], the “Inhibition of ligand binding, Adren. alpha2B” value is reported as 108%. In assay [2], the inhibition at 1 µM was 102%.

For the molecule `CN1CCc2c(c3cc(Cl)ccc3n2CCc2nc(-c3ccccc3)cs2)C1` [Compound C1-8], the IC50 is approximately 6 µM in the assay with rat brain mitochondria (concentration reducing to 50% the initial rate of turbidity fall after calcium addition, read-out: IC50, decrease of calcium-induced swelling of brain mitochondria) and 6.25 ± 6.25 µM with rat brain mitochondria (setting [3]). Further, the “A540 increase in mitochondrial suspension after addition of 100 μM of compound” value in the assay on rat brain mitochondria (rat brain mitochondria) is reported as 25 rel.units.

Consider `Cc1ccc2c(c1)c1c(n2CCc2ccc(C)nc2)CCN(C)C1` [Dimebon, dimebon, reference compound], for which, in assay [1], the “Inhibition of ligand binding, Adren. alpha2B” value is 112%. Further, the inhibition at 1 µM in assay [2] worked out at 94%. Also, the “A540 increase in mitochondrial suspension after addition of 100 μM of compound” value with rat brain mitochondria (rat brain mitochondria) was 1 rel.units. The IC50 in the assay with rat brain mitochondria (setting [3]) worked out at 66 ± 26 µM.
